# In patent publication US9446018B2, “Pharmaceutical composition for treating or preventing angina or myocardial infarction induced by myocardial ischemia” (SINPHAR TIAN-LI PHARMACEUTICAL CO., LTD. (HANGZHOU), priority 2009, dated 2016):
# Test system: myocardial cells (death induced from partial myocardial ischemia)
# Assay: Embodiment 1: myocardial infarct size after 1 h ligature of the left descending coronary branch and 1 h reperfusion (TTC staining)
# Assay type: in vivo, Crl:CD(SD) SPF rats
structure (smiles),measurement,setting,value
CC(=O)Oc1ccccc1C(=O)O [Aspirin],effect on myocardial infarct size compared with the blank control group (in words),"Embodiment 1, Table 1, STA-2 alone in high dose or in low dose",did not produce any statistically meaningful effects
same,Myocardial Infarction Percentage (%),"rat, tube-fed once daily 7 days + IP 1/3 dose after ligation, isosorbide dinitrate 18.75 mg/Kg, STA-2 low dose 250 mg/Kg, Aspirin 8.3 mg/Kg, mean ± SEM",14.75 ± 2.8%
O=[N+]([O-])O[C@H]1CO[C@H]2[C@@H]1OC[C@H]2O[N+](=O)[O-] [isosorbide dinitrate],effect on myocardial infarct size compared with the blank control group (in words),"rat, in vivo",significant reduction in myocardial infarct size
